The values below come from patent US20250051338A1, “TYK2 DEGRADERS AND USES THEREOF” (Kymera Therapeutics, Inc., priority 2021, published 2025).

Common to all, as to format: cell-based
Assay [1] concerns the target T1, TYK2 (Homo sapiens, UniProt P29597). Kind of assay: TYK2 degradation MSD assay in human PBMC cells. Further details: endogenous in cells; host or cells: human PBMC. Particulars: 4 to 24 hours incubation, read-out: TYK2 MSD DC50 rating in human PBMC. An outline of the steps: (§1)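 0.4 million cells/well; cpd 9-dose 1:3 titration, top 1–10 μM; 4–24 h, 37° C, 5% CO2; RIPA lysis; TYK2 capture/detection sandwich on MSD, SULFO-TAG anti-rabbit secondary; DC50 via 4-parameter fit.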

For assay [2], the target named is T1, TYK2. Nature of the assay: TYK2 degradation MSD assay in EBV-B cells. Further details: endogenous in cells; host or cells: EBV-B cells. Particulars: 4 to 24 hours incubation, read-out: TYK2 MSD DC50 rating in EBV-B. An outline of the steps: as §1
In assay [3] the target is T1, TYK2. Kind of assay: TYK2 degradation MSD assay in OCI-LY10 cells. Details: endogenous in cells; host or cells: EBV-B cells. The conditions noted are these: 4 to 24 hours incubation, read-out: TYK2 MSD DC50 rating in OCI-LY10. The procedure, abridged: as §1

T1 sequence (P29597 whole entry): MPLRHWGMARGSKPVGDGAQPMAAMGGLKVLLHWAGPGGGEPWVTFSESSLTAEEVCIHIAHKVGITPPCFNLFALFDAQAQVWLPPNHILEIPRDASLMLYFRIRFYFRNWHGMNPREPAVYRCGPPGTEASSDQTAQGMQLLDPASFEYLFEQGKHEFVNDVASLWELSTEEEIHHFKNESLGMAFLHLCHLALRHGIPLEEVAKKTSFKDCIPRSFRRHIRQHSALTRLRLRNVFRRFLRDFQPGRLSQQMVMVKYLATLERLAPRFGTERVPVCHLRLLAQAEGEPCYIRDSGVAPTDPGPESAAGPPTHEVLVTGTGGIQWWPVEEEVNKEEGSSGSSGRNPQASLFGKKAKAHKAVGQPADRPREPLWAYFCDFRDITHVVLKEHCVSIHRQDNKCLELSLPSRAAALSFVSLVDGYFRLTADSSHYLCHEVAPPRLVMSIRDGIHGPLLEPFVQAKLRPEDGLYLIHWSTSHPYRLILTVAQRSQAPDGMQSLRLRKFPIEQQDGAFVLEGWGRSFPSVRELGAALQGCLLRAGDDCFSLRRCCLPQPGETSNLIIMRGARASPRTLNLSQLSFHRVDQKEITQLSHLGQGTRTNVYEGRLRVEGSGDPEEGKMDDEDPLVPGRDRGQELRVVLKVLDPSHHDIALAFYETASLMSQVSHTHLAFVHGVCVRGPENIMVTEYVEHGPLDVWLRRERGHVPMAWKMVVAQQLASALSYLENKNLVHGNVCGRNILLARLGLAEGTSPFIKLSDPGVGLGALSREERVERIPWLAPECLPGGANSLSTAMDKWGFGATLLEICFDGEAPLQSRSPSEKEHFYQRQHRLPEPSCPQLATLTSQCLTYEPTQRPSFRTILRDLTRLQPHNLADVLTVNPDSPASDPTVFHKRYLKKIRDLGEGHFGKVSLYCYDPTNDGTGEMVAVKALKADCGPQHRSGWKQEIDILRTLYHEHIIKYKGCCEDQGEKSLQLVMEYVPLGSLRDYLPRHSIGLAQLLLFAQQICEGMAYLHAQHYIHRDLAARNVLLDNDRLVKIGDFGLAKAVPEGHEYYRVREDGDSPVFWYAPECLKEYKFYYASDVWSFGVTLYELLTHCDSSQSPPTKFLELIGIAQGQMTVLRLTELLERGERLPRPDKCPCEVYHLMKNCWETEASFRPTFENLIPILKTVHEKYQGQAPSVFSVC

With `CNc1cc(Nc2cccn(-c3ccc(C(=O)NC4CCC(C(=O)N5CCC6(CN(CC#Cc7ccc8c(c7)n(C)c(=O)n8C7CCC(=O)NC7=O)C6)C5)CC4)cn3)c2=O)nn2c(C(=O)N[C@@H]3C[C@@H]3F)cnc12` (stereo partly drawn) [Example K384], the 50% degradation concentration (DC50) on TYK2 [1], at TYK2 [2] and on TYK2 [3] was greater than 100 nM in each case.
In the case of `CNc1cc(Nc2cccn(-c3ccc(C(=O)N4CCC(c5ncc(-c6ccc7c(c6)n(C)c(=O)n7C6CCC(=O)NC6=O)cn5)CC4)cn3)c2=O)nn2c(C(=O)N[C@@H]3C[C@@H]3F)cnc12` (stereo partly drawn) [Example K385], the 50% degradation concentration (DC50) on TYK2 [1] was less than 1 nM; at TYK2 [2], less than 1 nM; at TYK2 [3], greater than 100 nM.
Consider `CNc1cc(Nc2cccn(-c3ccc(C(=O)N4CCN(CCc5ccc6c(c5)n(C)c(=O)n6C5CCC(=O)NC5=O)CC4)cn3)c2=O)nn2c(C(=O)N[C@@H]3C[C@@H]3F)cnc12` (stereo partly drawn) [Example K386], for which the half-maximal degradation concentration (DC50) on TYK2 [1] was less than 1 nM; at TYK2 [2], greater than 100 nM; on TYK2 [3], greater than 100 nM.
Turning to `CNc1cc(Nc2cccn(-c3ccc(C(=O)N(C)Cc4ccc(-c5ccc6c(c5)n(C)c(=O)n6C5CCC(=O)NC5=O)cn4)cn3)c2=O)nn2c(C(=O)N[C@@H]3C[C@@H]3F)cnc12` (stereo partly drawn) [Example K387], the 50% degradation concentration (DC50) was less than 1 nM on TYK2 [1], greater than 100 nM on TYK2 [2] and greater than 100 nM on TYK2 [3].
Take `CNc1cc(Nc2cccn(-c3ccc(C(=O)N4CC5(CCN(c6ccc7c(c6)n(C)c(=O)n7C6CCC(=O)NC6=O)CC5)C4)cn3)c2=O)nn2c(C(=O)N[C@@H]3C[C@@H]3F)cnc12` (stereo partly drawn) [Example K388]: the DC50 at TYK2 [1], at TYK2 [2] and at TYK2 [3] was greater than 100 nM throughout.
Consider `CNc1cc(Nc2cccn(-c3ccc(C(=O)N4CC5(CCN(c6cccc7c6n(C)c(=O)n7C6CCC(=O)NC6=O)CC5)C4)cn3)c2=O)nn2c(C(=O)N[C@@H]3C[C@@H]3F)cnc12` (stereo partly drawn) [Example K389], for which the DC50 at TYK2 [1], at TYK2 [2] and at TYK2 [3] was less than 1 nM in each case.
`CNc1cc(Nc2cccn(-c3ccc(C(=O)N4CCC(CN(C)c5ccc6c(c5)n(C)c(=O)n6C5CCC(=O)NC5=O)CC4)cn3)c2=O)nn2c(C(=O)N[C@@H]3C[C@@H]3F)cnc12` (stereo partly drawn) [Example K390]: the results for the half-maximal degradation concentration (DC50) at TYK2 [1], on TYK2 [2] and at TYK2 [3] were less than 1 nM, greater than 100 nM and greater than 100 nM, respectively.
As to `CNc1cc(Nc2cccn(-c3ccc(C(=O)N4CCC5(CC4)CC(Cc4ccc6c(c4)n(C)c(=O)n6C4CCC(=O)NC4=O)C5)cn3)c2=O)nn2c(C(=O)N[C@@H]3C[C@@H]3F)cnc12` (stereo partly drawn) [Example K391], the figures for the 50% degradation concentration (DC50) at TYK2 [1], at TYK2 [2] and on TYK2 [3] were less than 1 nM, less than 1 nM and greater than 100 nM, respectively.
For `CNc1cc(Nc2cccn(-c3ccc(C(=O)N4CCC5(CC4)CCN(c4ccc6c(c4)n(C)c(=O)n6C4CCC(=O)NC4=O)C5)cn3)c2=O)nn2c(C(=O)N[C@@H]3C[C@@H]3F)cnc12` (stereo partly drawn) [Example K392], the DC50 at TYK2 [1] was less than 1 nM; at TYK2 [2] it was greater than 100 nM; on TYK2 [3], greater than 100 nM.
On to `CNc1cc(Nc2cccn(-c3ccc(C(=O)N4CCC(OC5CC(c6ccc7c(c6)n(C)c(=O)n7C6CCC(=O)NC6=O)C5)CC4)cn3)c2=O)nn2c(C(=O)N[C@@H]3C[C@@H]3F)cnc12` (stereo partly drawn) [Example K393], for which the results for the DC50 at TYK2 [1], at TYK2 [2] and at TYK2 [3] were less than 1 nM, greater than 100 nM and greater than 100 nM, respectively.
Turning to `CNc1cc(Nc2cccn(-c3ccc(C(=O)N4CCC(OCC#Cc5ccc6c(c5)n(C)c(=O)n6C5CCC(=O)NC5=O)CC4)cn3)c2=O)nn2c(C(=O)N[C@@H]3C[C@@H]3F)cnc12` (stereo partly drawn) [Example K394], the figures for the half-maximal degradation concentration (DC50) on TYK2 [1], at TYK2 [2] and at TYK2 [3] were greater than 100 nM, 1 to 10 nM and greater than 100 nM, respectively.
Consider `CNc1cc(Nc2cccn(-c3ccc(C(=O)N4CCC(n5cc(-c6ccc7c(c6)n(C)c(=O)n7C6CCC(=O)NC6=O)cn5)CC4)cn3)c2=O)nn2c(C(=O)N[C@@H]3C[C@@H]3F)cnc12` (stereo partly drawn) [Example K395], for which the DC50 was greater than 100 nM at TYK2 [1], less than 1 nM at TYK2 [2] and greater than 100 nM at TYK2 [3].
For `CNc1cc(Nc2cccn(C3CCN(C(=O)N(C)C4CCN(Cc5cccc6c5n(C)c(=O)n6C5CCC(=O)NC5=O)CC4)CC3)c2=O)nn2c(C(=O)N[C@@H]3C[C@@H]3F)cnc12` (stereo partly drawn) [Example K396], the half-maximal degradation concentration (DC50) at TYK2 [1] is greater than 100 nM; on TYK2 [2], 1 to 10 nM; at TYK2 [3] it was greater than 100 nM.
Turning to `CNc1cc(Nc2cccn(C3CCN(C(=O)N(C)CC4CCN(Cc5cccc6c5n(C)c(=O)n6C5CCC(=O)NC5=O)CC4)CC3)c2=O)nn2c(C(=O)N[C@@H]3C[C@@H]3F)cnc12` (stereo partly drawn) [Example K397], the figures for the 50% degradation concentration (DC50) at TYK2 [1], at TYK2 [2] and on TYK2 [3] were greater than 100 nM, 1 to 10 nM and greater than 100 nM, respectively.
With `CNc1cc(Nc2cccn(C3CCN(C(=O)N(C)CC4CCN(c5ccc6c(c5)n(C)c(=O)n6C5CCC(=O)NC5=O)CC4)CC3)c2=O)nn2c(C(=O)N[C@@H]3C[C@@H]3F)cnc12` (stereo partly drawn) [Example K398], the half-maximal degradation concentration (DC50) at TYK2 [1] was greater than 100 nM; at TYK2 [2], less than 1 nM; on TYK2 [3] it was greater than 100 nM.
`CNc1cc(Nc2cccn(C3CCN(C(=O)NCCCCCCCCCCc4ccc5c(c4)n(C)c(=O)n5C4CCC(=O)NC4=O)CC3)c2=O)nn2c(C(=O)N[C@@H]3C[C@@H]3F)cnc12` (stereo partly drawn) [Example K399]: the DC50 is greater than 100 nM on TYK2 [1], 1 to 10 nM at TYK2 [2] and greater than 100 nM at TYK2 [3].
For the molecule `Cc1cc(C)cc(Nc2cc(NCCCCCCCCc3ccc4c(c3)n(C)c(=O)n4C3CCC(=O)NC3=O)c3ncc(C(=O)N[C@@H]4C[C@@H]4F)n3n2)c1` (stereo partly drawn) [Example K400], the half-maximal degradation concentration (DC50) at TYK2 [1], at TYK2 [2] and at TYK2 [3] was greater than 100 nM each time.
For `Cc1cc(C)cc(Nc2cc(NCCCCCCc3ccc4c(c3)n(C)c(=O)n4C3CCC(=O)NC3=O)c3ncc(C(=O)N[C@@H]4C[C@@H]4F)n3n2)c1` (stereo partly drawn) [Example K401], the DC50 on TYK2 [1], at TYK2 [2] and at TYK2 [3] was greater than 100 nM each time.
As to `Cc1cc(C)cc(Nc2cc(NCCCCc3ccc4c(c3)n(C)c(=O)n4C3CCC(=O)NC3=O)c3ncc(C(=O)N[C@@H]4C[C@@H]4F)n3n2)c1` (stereo partly drawn) [Example K402], the half-maximal degradation concentration (DC50) on TYK2 [1], on TYK2 [2] and at TYK2 [3] was greater than 100 nM in each case.
As for `Cn1c(=O)n(C2CCC(=O)NC2=O)c2cccc(C3CN(C4CCN(Cc5ccc(-c6cccc(Nc7ccc8ncc(C(=O)NC9CC9)n8n7)c6)nc5)CC4)C3)c21` (stereo not drawn) [Example K403], the 50% degradation concentration (DC50) at TYK2 [1], at TYK2 [2] and on TYK2 [3] was greater than 100 nM throughout.
With `Cn1c(=O)n(C2CCC(=O)NC2=O)c2ccc(C#CC3CCN(Cc4ccc(-c5cccc(Nc6ccc7ncc(C(=O)NC8CC8)n7n6)c5)nc4)CC3)cc21` (stereo not drawn) [Example K404], the half-maximal degradation concentration (DC50) at TYK2 [1], at TYK2 [2] and on TYK2 [3] was greater than 100 nM in each case.
`Cn1c(=O)n(C2CCC(=O)NC2=O)c2ccc(C3CN(C4CCN(Cc5ccc(-c6cccc(Nc7ccc8ncc(C(=O)NC9CC9)n8n7)c6)nc5)CC4)C3)cc21` (stereo not drawn) [Example K405]: the 50% degradation concentration (DC50) at TYK2 [1], at TYK2 [2] and at TYK2 [3] was greater than 100 nM in each case.
With `Cn1c(=O)n(C2CCC(=O)NC2=O)c2ccc(N3CCN(Cc4ccc(-c5cccc(Nc6ccc7ncc(C(=O)NC8CC8)n7n6)c5)nc4)CC3)cc21` (stereo not drawn) [Example K406], the DC50 on TYK2 [1], on TYK2 [2] and on TYK2 [3] was greater than 100 nM throughout.
Regarding `CNc1cc(Nc2cccn(-c3ccc(C(=O)N4CCC(OCCCc5ccc6c(c5)n(C)c(=O)n6C5CCC(=O)NC5=O)CC4)cn3)c2=O)nn2c(C(=O)N[C@@H]3C[C@@H]3F)cnc12` (stereo partly drawn) [Example K407], the figures for the 50% degradation concentration (DC50) on TYK2 [1], on TYK2 [2] and at TYK2 [3] were greater than 100 nM, greater than 100 nM and less than 1 nM, respectively.
Consider `CNc1cc(Nc2cccn(-c3ccc(C(=O)N4CCC(CN5CCC(c6ccc7c(c6)n(C)c(=O)n7C6CCC(=O)NC6=O)CC5)CC4)cn3)c2=O)nn2c(C(=O)N[C@@H]3C[C@@H]3F)cnc12` (stereo partly drawn) [Example K408], for which the figures for the DC50 at TYK2 [1], at TYK2 [2] and at TYK2 [3] were greater than 100 nM, greater than 100 nM and less than 1 nM, respectively.
On to `CNc1cc(Nc2cccn(-c3ccc(C(=O)N4CCC5(CCN(c6cnc(C#Cc7ccc8c(c7)n(C)c(=O)n8C7CCC(=O)NC7=O)nc6)C5=O)C4)cn3)c2=O)nn2c(C(=O)N[C@@H]3C[C@@H]3F)cnc12` (stereo partly drawn) [Example K409], for which the 50% degradation concentration (DC50) on TYK2 [1] was greater than 100 nM; on TYK2 [2] it was greater than 100 nM; on TYK2 [3], 1 to 10 nM.
As to `CNc1cc(Nc2cccn(-c3ccc(C(=O)N4CCC(N5CC(c6ccc7c(c6)n(C)c(=O)n7C6CCC(=O)NC6=O)C5)CC4)cn3)c2=O)nn2c(C(=O)N[C@@H]3C[C@@H]3F)cnc12` (stereo partly drawn) [Example K410], the values for the DC50 at TYK2 [1], on TYK2 [2] and on TYK2 [3] were greater than 100 nM, greater than 100 nM and less than 1 nM, respectively.
With `Cn1c(=O)n(C2CCC(=O)NC2=O)c2cccc(C#CC3CCN(Cc4ccc(-c5cccc(Nc6ccc7ncc(C(=O)NC8CC8)n7n6)c5)nc4)CC3)c21` (stereo not drawn) [Example K412], the DC50 on TYK2 [1], at TYK2 [2] and on TYK2 [3] was greater than 100 nM in each case.
As for `CNc1cc(Nc2cccc(-c3ccc(CN4CCC(c5ccc(-c6ccc7c(c6)n(C)c(=O)n7C6CCC(=O)NC6=O)cc5)CC4)cn3)c2)nn2c(C(=O)NC3CC3F)cnc12` (stereo not drawn) [Example K413], the DC50 at TYK2 [1] is greater than 100 nM; at TYK2 [2] it was greater than 100 nM; on TYK2 [3] it was less than 1 nM.
As for `CNc1cc(Nc2cccc(-c3ccc(CN4CCC(N5CC(c6cccc7c6n(C)c(=O)n7C6CCC(=O)NC6=O)C5)CC4)cn3)c2)nn2c(C(=O)N[C@@H]3C[C@@H]3F)cnc12` (stereo partly drawn) [Example K414], the 50% degradation concentration (DC50) is greater than 100 nM at TYK2 [1], greater than 100 nM on TYK2 [2] and less than 1 nM at TYK2 [3].

The term DC50 denotes the concentration giving 50% degradation.
